Assay results: article PMC11845477, “Exploring the principles behind antibiotics with limited resistance” (Nature Communications, 2025)

Key:
Assay in all cases: microbe, parasite or virus in culture
[1] = test system: K. pneumoniae ATCC 10031 (SEN) and K. pneumoniae ATCC 700603 (MDR); format: cell-based, Klebsiella pneumoniae; settings: for MIC: Klebsiella pneumoniae, across three biological replicates
Procedure: (§1) This study focused on multiple bacterial strains, as follows. For the FoR and ALE experiments, 2 strains per species were chosen: E. coli ATCC 25922, K. pneumoniae ATCC 10031, A. baumannii ATCC 17978, and P. aeruginosa ATCC BAA-3107 as sensitive (SEN) strains, and E. coli NCTC13846, K. pneumoniae ATCC 700603, A. baumannii ATCC BAA-1605 and P. aeruginosa LESB58 as multi-drug resistant (MDR) strains. Functional metagenomic screens were performed with E. coli ATCC 25922 and K. pneumoniae ATCC 10031 strains. To determine the dose-kill properties of the different antibiotics, an E. coli strain (ATCC 25922) expressing a yellow fluorescent protein (pZS2R, YFP, CHL^R) and a red fluorescent protein (pZS2R, mCherry, CHL^R) was used.
(§2) Unless otherwise indicated, cation-adjusted Mueller-Hinton Broth 2 (MHB, Millipore) medium was used throughout the study, except for SCH79797 (SCH).
(§3) A robotic liquid handling system was used to automatically prepare a 11 to 16-step serial dilution in 384-well microtiter plates (Greiner). A final concentration of 5 × 10^5 bacterial cells per mL were inoculated into each well containing 60 µL MHB medium. Bacterial cultures were incubated at 37 °C with continuous shaking (Infors shaker, 900 rpm with 3 mm throw) for 18 hours (2 replicates from each). Cell growth was monitored by measuring the optical density (OD600 values, using Biotek Synergy microplate reader). MIC was defined as the antibiotic concentration of complete growth inhibition (i.e., OD600 < 0.05). Relative MIC was calculated as follows:1 relativeMIC=MICevolved/MICancestor

[2] = test system: P. aeruginosa ATCC BAA-3107 (SEN) and P. aeruginosa LESB58 (MDR); format: cell-based, Pseudomonas aeruginosa; settings: for MIC: Pseudomonas aeruginosa, across three biological replicates
Procedure: as §1, §2, §3

[3] = test system: A. baumannii ATCC 17978 (SEN) and A. baumannii ATCC BAA-1605 (MDR); format: cell-based, Acinetobacter baumannii; settings: for MIC: Acinetobacter baumannii, across three biological replicates
Procedure: as §1, §2, §3

[4] = Klebsiella pneumoniae ATCC 10031 (KP-SEN), ancestor strain, sheet fig 2a
[5] = Klebsiella pneumoniae ATCC 700603 (KP-MDR), ancestor strain, sheet fig 2a
[6] = Klebsiella pneumoniae ATCC 10031 (KP-SEN)
[7] = Klebsiella pneumoniae ATCC 700603 (KP-MDR)
[8] = P. aeruginosa ATCC BAA 3107 (PA-SEN), ancestor strain, sheet fig 2a
[9] = ATCCBAA3107, Pseudomonas aeruginosa ATCC BAA-3107 (PA-SEN)
[10] = ATCCBAA3107, Pseudomonas aeruginosa LESB 58 (PA-MDR)
[11] = Acinetobacter baumannii ATCC BAA-1605 (AB-MDR)

Compound	MIC of ancestor ([1]; KP-MDR, Klebsiella pneumoniae ATCC 700603, ancestor strain) [µg/mL]	MIC of ancestor [1, 4] [µg/mL]	MIC of ancestor [1, 5] [µg/mL]	MIC [1, 6] [µg/mL]	MIC [1, 7] [µg/mL]	MIC of ancestor [2, 8] [µg/mL]	MIC of ancestor ([2]; P. aeruginosa LESB 58 (PA-MDR), ancestor strain, sheet fig 2a) [µg/mL]	MIC of ancestor ([2]; PA-MDR, Pseudomonas aeruginosa LESB 58, ancestor strain) [µg/mL]	MIC of ancestor ([2]; PA-SEN, Pseudomonas aeruginosa ATCC BAA 3107, ancestor strain) [µg/mL]	MIC [2, 9] [µg/mL]	MIC [2, 10] [µg/mL]	MIC of ancestor ([3]; AB-SEN, Acinetobacter baumannii ATCC 17978, ancestor strain) [µg/mL]	MIC of ancestor ([3]; Acinetobacter baumannii ATCC 17978 (AB-SEN), ancestor strain, sheet fig 2a) [µg/mL]	MIC ([3]; Acinetobacter baumannii ATCC 17978 (AB-SEN)) [µg/mL]	MIC [3, 11] [µg/mL]	MIC of ancestor ([1]; Klebsiella pneumoniae ATCC 10031 (KP-SEN), ancestor) [µg/mL]	MIC of ancestor ([1]; Klebsiella pneumoniae ATCC 700603 (KP-MDR), ancestor) [µg/mL]	MIC of ancestor ([2]; Pseudomonas aeruginosa ATCC BAA 3107 (PA-SEN), ancestor) [µg/mL]
C[C@@H](O)[C@H]1C(=O)N2C(C(=O)O)=C(S[C@@H]3CN[C@H](C(=O)N(C)C)C3)[C@H](C)[C@H]12 [Meropenem]	0.0625	0.0312	0.0625	0.0312	0.0625	0.0312	2	2	0.0312	0.0312	2	1	1	1	> 32	–	–	–
COc1c(N2C[C@@H]3CCCN[C@@H]3C2)c(F)cc2c(=O)c(C(=O)O)cn(C3CC3)c12 [Moxifloxacin]	–	0.00781	1	0.00781	1	1	–	–	–	1	32	–	–	–	32	0.00781	1	1
